Test results published in patent publication US20210355106A1, “NEW AMINO-PYRIMIDONYL-PIPERIDINYL DERIVATIVES, A PROCESS FOR THEIR PREPARATION AND PHARMACEUTICAL COMPOSITIONS CONTAINING THEM” (LES LABORATOIRES SERVIER, priority 2018, published 2021).
Values joined by “and” are separate entries in the source; they are usually repeats but may differ in a detail not shown here. Identical values can stand only once.

Key:
USP7 = biological target: T1, USP7 (Homo sapiens, UniProt Q93009, C315A); experiment: Inhibition of USP7 by Fluorescence Intensity (FLINT) readings, Ubiquitin-Rhodamine-110 substrate; type: biochemical; details: 0.25 nM His-His-USP7 (aa208-560), 60 minutes at 30° C. preincubation; Ki determined from IC50 according to Cer et al.
T1 construct: 0.25 nM His-His-USP7 (aa208-560, |C315A|) was incubated with compound; His-His (N)
Summary of the method: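 His-tagged USP7 (aa208-560, C315A), 0.25 nM, preincubated with compound 60 min at 30 °C in 100 mM Bicine pH 8.0, 0.01% Triton X-100, 1 mM TCEP, 10% DMSO. Ubiquitin-Rhodamine-110 (50 nM or 4 μM) added; kinetic fluorescence (Ex 485/Em 535 nm) over 21 min; IC50 from 11-point curves, Ki derived from IC50.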

[1] = test system: Z138 mantle cell lymphoma tumour cell lines; experiment: In vitro cytotoxicity, MTT assay; type: cell-based; details: Homo sapiens, Z-138; Z138 cells, exposed to the test compounds for 96 hours
Summary of the method: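 Z138 cells exposed to compounds for 96 hours, then MTT added for 4 hours. Formazan absorbance at 540 nm serves as the measure of viable cell number.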

T1 sequence (Q93009 208-560 C315A): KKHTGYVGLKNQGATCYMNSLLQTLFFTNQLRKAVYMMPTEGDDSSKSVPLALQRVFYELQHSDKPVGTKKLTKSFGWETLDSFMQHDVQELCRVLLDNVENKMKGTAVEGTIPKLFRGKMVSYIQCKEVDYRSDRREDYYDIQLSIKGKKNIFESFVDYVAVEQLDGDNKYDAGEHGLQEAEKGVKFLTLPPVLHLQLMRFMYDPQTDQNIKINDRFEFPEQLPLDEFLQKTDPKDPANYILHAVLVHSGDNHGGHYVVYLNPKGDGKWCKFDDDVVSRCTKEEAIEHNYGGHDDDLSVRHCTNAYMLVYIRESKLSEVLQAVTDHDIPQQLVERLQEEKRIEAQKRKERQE

`Nc1c(Oc2ccc(F)cc2)ncn(CC2(O)CCN(C(=O)[C@@H]3CCN(S(=O)(=O)c4cccc(Br)c4)C[C@H]3c3ccccc3)CC2)c1=O` [Example 69, 5-amino-3-[[1-[(3R,4R)-1-(3-bromophenyl)sulfonyl-3-phenyl-piperidine-4-carbonyl]-4-hydroxy-4-piperidyl]methyl]-6-(4-fluorophenoxy)pyrimidin-4-one] gave a Ki (USP7) of 18.1 nM and an IC50 [1] of 21.7 nM.

`Nc1c(Oc2ccc(F)cc2)ncn(C[C@@]2(O)CCN(C(=O)[C@@H]3CCN(Cc4cccnn4)C[C@H]3c3ccccc3)CC2(F)F)c1=O` [Example 203] showed a Ki (USP7) of 47.1 nM and an IC50 [1] of 33 nM.

In the case of `Cc1ccc(-c2ncc(CN3CC[C@@H](C(=O)N4CCC(O)(Cn5cnc(Oc6ccc(F)cc6)c(N)c5=O)CC4)[C@H](c4ccccc4)C3)s2)cn1` [Example 51, 5-amino-6-(4-fluorophenoxy)-3-({4-hydroxy-1-[(3R,4R)-1-{{2-(6-methylpyridin-3 yl)-1,3-thiazol-5-yl]methyl}-3-phenylpiperidine-4-carbonyl]piperidin-4-yl}methyl)pyrimidin-4(3H)-one], the Ki (USP7) is reported as 2.6 nM and the IC50 [1] is reported as 1.4 nM.

Compound `Cc1cc(C(=O)N2CC[C@@H](C(=O)N3CC[C@](O)(Cn4cnc(Oc5ccc(F)cc5)c(N)c4=O)C(F)(F)C3)[C@H](c3ccccc3)C2)nn1-c1ccccc1` [Example 120, 5-amino-3-({(4S)-3,3-difluoro-4-hydroxy-1-[(3R,4R)-1-(5-methyl-1-phenyl-1H-pyrazole-3-carbonyl)-3phenylpiperidine-4-carbonyl]piperidin-4-yl)methyl)-6(4-fluorophenoxy)pyrimidin-4(3H)-one] has a Ki (USP7) of 45.4 nM and an IC50 [1] of 41.3 nM.

`Nc1c(Oc2ccc(F)cc2)ncn(CC2(O)CCN(C(=O)[C@@H]3CCN(C4(c5cccc(F)c5)COC4)C[C@H]3c3ccccc3)CC2)c1=O` [Example 153, 5-amino-6-(4-fluorophenoxy)-3-[[1-[(3R,4R)-1-[3-(3-fluorophenyl)oxetan-3-yl]-3-phenyl-piperidine-4-carbonyl]-4-hydroxy-4-piperidyl]methyl]pyrimidin-4-one] gave a Ki (USP7) of 28.7 nM and an IC50 [1] of 62 nM.

Work on `Cc1nc(C2CCCCC2)sc1C(=O)N1CC[C@@H](C(=O)N2CCC(O)(Cn3cnc(Oc4ccc(F)cc4)c(N)c3=O)CC2)[C@H](c2ccccc2)C1` [Example 158] yielded a Ki (USP7) of 10.7 nM and an IC50 [1] of 5.24 nM.

With `Nc1c(Oc2ccc(F)cc2)ncn(CC2(O)CCN(C(=O)[C@@H]3CCN(C(=O)Nc4ccccc4C(F)(F)F)C[C@H]3c3ccccc3)CC2)c1=O` [Example 128, (3R,4R)-4-[4-[[5-amino-4-(4-fluorophenoxy)-6-oxo-pyrimidin-1-yl]methyl]-4-hydroxy-piperidine-1-carbonyl]-3-phenyl-N-[2-(trifluoromethyl)phenyl]piperidine-1-carboxamide] the Ki (USP7) was 38.6 nM and the IC50 [1] was 75 nM.

For `Cc1nc(C2CCCNC2)sc1C(=O)N1CC[C@@H](C(=O)N2CCC(O)(Cn3cnc(Oc4ccc(F)cc4)c(N)c3=O)CC2)[C@H](c2ccccc2)C1` (stereo partly drawn) [Example 172, 5-amino-6-(4-fluorophenoxy)-3-[[4-hydroxy-1-[(3R,4R)-1-[4-methyl-2-(3-piperidyl)thiazole-5-carbonyl]-3-phenyl-piperidine-4-carbonyl]-4-piperidyl]methyl]pyrimidin-4-one], the Ki (USP7) was 7.64 nM and the IC50 [1] was 385 nM.

For `Cc1ccc(-c2cc(CN3CC[C@@H](C(=O)N4CC[C@](O)(Cn5cnc(Oc6ccc(F)cc6)c(N)c5=O)C(F)(F)C4)[C@H](c4ccccc4)C3)ncn2)cn1` [Example 164, 5-amino-3-[[(4S)-3,3-difluoro-4-hydroxy-1-[(3R,4R)-1-[[6-(6-methyl-3-pyridyl)pyrimidin-4-yl}methyl]-3-phenyl-piperidine-4-carbonyl]-4-piperidyl]methyl]-6-(4-fluorophenoxy)pyrimidin-4-one], the Ki (USP7) was 6.48 nM and 5.16 nM and the IC50 [1] was 1.83 nM.

Compound `Cc1ccc(-c2nc(C)c(C(=O)N3CC[C@@H](C(=O)N4CCC(O)(Cn5cnc(Oc6ccccc6)c(N)c5=O)CC4)[C@H](c4ccccc4)C3)s2)cn1` [Example 46, 5-amino-3-[(4-hydroxy-1-((3R,4R)-1-[4-methyl-2-(6-methylpyridin-3-yl)-1,3-thiazole-5-carbonyl]-3-phenylpiperidine-4-carbonyl)piperidin-4-yl)methyl)-6-phenoxypyrimidin-4(3H)-one] has a Ki (USP7) of 2.9 nM and an IC50 [1] of 3.1 nM.

`Nc1c(Oc2ccc(F)cc2)ncn(C[C@@]2(O)CCN(C(=O)[C@@H]3CCN(Cc4ccnc(-c5ccccc5)n4)C[C@H]3c3ccccc3)CC2(F)F)c1=O` [Example 177, 5-amino-3-[[(4S)-3,3-difluoro-4-hydroxy-1-[(3R,4R)-3-phenyl-1-[(2-phenylpyrimidin-4-yl)methyl]piperidine-4-carbonyl]-4-piperidyl]methyl]-6-(4-fluorophenoxy)pyrimidin-4-one] gave a Ki (USP7) of 9.99 nM and an IC50 [1] of 2.32 nM.

`Cc1ccc(-c2c(Cl)sc(C(=O)N3CC[C@@H](C(=O)N4CCC(O)(Cn5cnc(Oc6ccc(F)cc6)c(N)c5=O)CC4)[C@H](c4ccccc4)C3)c2F)cn1` [Example 107] gave a Ki (USP7) of 3.3 nM and an IC50 [1] of 7.64 nM.

Compound `Cc1nc(-c2ccc(C(F)(F)F)nc2)sc1C(=O)N1CC[C@@H](C(=O)N2CC[C@](O)(Cn3cnc(Oc4ccc(F)cc4)c(N)c3=O)C(F)(F)C2)[C@H](c2ccccc2)C1` [Example 103] has a Ki (USP7) of 6.4 nM and an IC50 [1] of 6.63 nM.

`Cc1cncc(C(=O)N2CC[C@@H](C(=O)N3CCC(O)(Cn4cnc(Oc5ccc(F)cc5)c(N)c4=O)CC3)[C@H](c3ccccc3)C2)c1` [Example 92, 5-amino-6-(4-fluorophenoxy)-3-({4-hydroxy-1-[(3R,4R)-1-(5-methylpyridine-3-carbonyl)-3-phenylpiperidine-4-carbonyl]piperidin-4-yl}methyl)pyrimidin-4(3H)-one] was tested, and the Ki (USP7) was 4.9 nM and the IC50 [1] was 45.7 nM.

Compound `Nc1c(Oc2ccc(F)cc2)ncn(CC2(O)CCN(C(=O)[C@@H]3CCN(C(=S)Nc4ccccc4)C[C@H]3c3ccccc3)CC2)c1=O` [Example 60] has a Ki (USP7) of 75.9 nM and an IC50 [1] of 128 nM.

Work on `COc1cc(Cl)cc(Oc2ncn(C[C@@]3(O)CCN(C(=O)[C@@H]4CCN(Cc5cnc(C)cn5)C[C@H]4c4ccccc4)CC3(F)F)c(=O)c2N)c1` [Example 178] yielded a Ki (USP7) of 70.1 nM and an IC50 [1] of 31.8 nM.

For `Cc1cnc(CN2CC[C@@H](C(=O)N3CC[C@](O)(Cn4cnc(Oc5ccc(Cl)cc5)c(N)c4=O)C(F)(F)C3)[C@H](c3ccccc3)C2)cn1` [Example 221, 5-amino-6-(4-chlorophenoxy)-3-[[(4S)-3,3-difluoro-4-hydroxy-1-[(3R,4R)-1-[(5-methylpyrazin-2-yl)methyl]-3-phenyl-piperidine-4-carbonyl]-4-piperidyl]methyl]pyrimidin-4-one], the Ki (USP7) was 35.5 nM and the IC50 [1] was 10.2 nM.

With `Nc1c(Oc2ccc(F)cc2)ncn(C[C@@]2(O)CCN(C(=O)[C@@H]3CCN(C(=O)Nc4ccccc4)C[C@H]3c3ccccc3)CC2(F)F)c1=O` [Example 77] the Ki (USP7) was 37 nM and the IC50 [1] was 13 nM.

For `Cc1ccc(-c2cc(F)c(C(=O)N3CC[C@@H](C(=O)N4CC[C@](O)(Cn5cnc(Oc6ccc(F)cc6)c(N)c5=O)C(F)(F)C4)[C@H](c4ccccc4)C3)s2)cn1` [Example 105, 5-amino-3-([(4S)-3,3-difluoro-1-((3R,4R)-1-[3-fluoro-5-(6-methylpyridin-3-yl)thiophene-2-carbonyl]-3-phenylpiperidine-4-carbonyl}-4-hydroxypiperidin-4-yl}methyl}-6-(4-fluorophenoxy)pyrimidin-4(3H)-one], the Ki (USP7) was 2.6 nM and the IC50 [1] was 5.08 nM.

In the case of `Cc1nccc(CN2CC[C@@H](C(=O)N3CC[C@](O)(Cn4cnc(Oc5ccc(F)cc5)c(N)c4=O)C(F)(F)C3)[C@H](c3ccccc3)C2)n1` [Example 13, 5-amino-3-{[(4S)-3,3-difluoro-4-hydroxy-1-{(3R,4R)-1-[(2-methylpyrimidin-4-yl)methyl]-3-phenylpiperidine-4-carbonyl]piperidin-4-yl]methyl)-6-(4-fluorophenoxy)pyrimidin-4(31)-one], the Ki (USP7) is reported as 23.3 nM and the IC50 [1] is reported as 10.6 nM.

Compound `Cc1ccnc(CN2CC[C@@H](C(=O)N3CC[C@](O)(Cn4cnc(Oc5ccc(F)cc5)c(N)c4=O)C(F)(F)C3)[C@H](c3ccccc3)C2)n1` [Example 205] has a Ki (USP7) of 35.8 nM and an IC50 [1] of 23.5 nM.

`Cc1nc(Cc2ccccc2)sc1C(=O)N1CC[C@@H](C(=O)N2CCC(O)(Cn3cnc(Oc4ccc(F)cc4)c(N)c3=O)CC2)[C@H](c2ccccc2)C1` [Example 61, 5-amine-3-({1-[(3R,4R)-1-(2-benzyl-4-methyl-1,3-thiazole-5-carbonyl)-3-phenylpiperidine-4-carbonyl]-4-hydroxypiperidin-4-yl)methyl)-6-(4-fluorophenoxy)pyrimidin-4(3H)-one] showed a Ki (USP7) of 7.9 nM and an IC50 [1] of 17 nM.

For `COc1cc(Oc2ncn(C[C@@]3(O)CCN(C(=O)[C@@H]4CCN(Cc5nc(C)cc(C)n5)C[C@H]4c4ccccc4)CC3(F)F)c(=O)c2N)ccc1F` [Example 217], the Ki (USP7) was 42.6 nM and the IC50 [1] was 23.1 nM.

With `Cc1ccc(-c2nc(C)c(C(=O)N3CC[C@@H](C(=O)N4CCC(O)(Cn5cnc(Oc6cccc(C(F)(F)F)c6)c(N)c5=O)CC4)[C@H](c4ccccc4)C3)s2)cn1` [Example 26] the Ki (USP7) was 6.1 nM and the IC50 [1] was 20 nM.

In the case of `Cc1ccc(-c2nc(C)c(C(=O)N3CC[C@@H](C(=O)N4CCC(O)(Cn5cnc(Oc6ccc(CN)cc6)c(N)c5=O)CC4)[C@H](c4ccccc4)C3)s2)cn1` [Example 131], the Ki (USP7) is reported as 0.064 nM and the IC50 [1] is reported as 5.3 nM.
